Laboratory results taken from a melting point compilation (Tetko et al.; mined from patent text by program, amines drawn as free bases though some values may be those of a salt).

melting point [°C]	SMILES
196 to 198	COc1cc(C(C)C)c2c(c1)S(=O)(=O)N(COc1cc(C)nn1-c1ccc([N+](=O)[O-])cc1)C2=O
124	Oc1cc(CCc2ccccc2)cc(O)c1O
265 to 270	CCOC(=O)c1[nH]c2cc(F)ccc2c1NCCC(=O)c1ccccc1
136	O=C1c2cccc3cccc(c23)N1CCCl
261 to 264	CS(=O)(=O)c1ccc(C(Cc2ccc(F)cc2)C(=O)Nc2nc3ncccc3o2)cc1 (stereo not drawn)
222 to 224	Cc1cc(-c2nnc3c4ccccc4c(OCc4ccncn4)nn23)no1
236 to 237	Cc1sc2cc(O)ccc2c1C1=C(c2c(C)sc3cc(O)ccc23)C(F)(F)C(F)(F)C1(F)F
179 to 180	CCCc1cc(-c2csc(-c3ccc(OCC)c(OCC)c3)n2)cc(C(=O)O)c1O
242 to 244	CNc1nc(-c2cccc(C(=O)Nc3ccccc3)c2)c2cc(OC)c(OC)cc2n1
122 to 126	Cc1cccc2c1OC(c1ccccc1)([N+](=O)[O-])C2 (stereo not drawn)
149 to 151	CCCc1nc(N(C)c2ccccc2)n2ncc(C(=O)c3ccccc3Cl)c2n1
202 to 204	Cc1c(S(=O)(=O)c2ccccc2)cc(C(C)(C)C)c(O)c1C(=O)Nc1ccc([N+](=O)[O-])cc1Cl
73.5 to 75.5	N#Cc1cccc(CN2CCc3cc(Cl)ccc32)c1
177 to 179	COc1ccc(Cn2cnc3c(-c4ccco4)nc(Cl)nc32)cc1C
176 to 178	COc1cc([N+](=O)[O-])ccc1N1C(=O)C(=O)N(c2cccc(Cl)c2)C1=O
264 to 268	O=C(Nc1ccc(Cl)cc1)Nc1ccc2[nH]c(C(F)(F)F)nc2c1

melting point [°C]	SMILES
178 to 185	N#Cc1ccc(-c2cn(-c3ccc(Br)cc3)cn2)cc1
82	COC(=O)CC(=O)c1ccc(-c2ccccc2)cc1
69 to 71	COc1ccc(OCCO)cc1
> 315	Oc1ncnc2nc(-c3cccc(Cl)c3)cnc12
214	CS(=O)c1ccc(-c2nn(Cc3ccc(Cl)cc3Cl)c(=O)cc2-c2ccc(F)cc2)cc1 (stereo not drawn)
150 to 165	O=c1c(Nc2cccc(C(F)(F)F)c2)c(Nc2ccc(Br)cc2-c2nnn[nH]2)c1=O
256 to 257	COc1ccc2c(c1)CCc1c(C(F)F)nn(-c3ccc(S(N)(=O)=O)cc3)c1-2
229 to 231	C#Cc1cc(O)cc2nc(-c3ccc(O)cc3)oc12
160	CCOC(=O)Cc1nn(CC(=O)Nc2cc(C(F)(F)F)ccc2Br)c(=O)c2ccccc12
319 to 321	COc1cc(-c2ccc(C(=N)NO)cc2)cc(-c2nc3cc(C(=N)NO)ccc3[nH]2)c1O
226	CC(=O)C(C)N1C(=O)N(c2ccc(N3CCN(c4ccc(O)cc4)CC3)cc2)C(=O)C1(C)C (stereo not drawn)
195 to 197	O=c1c2c(c3ccccc3n1-c1ccccc1)OCC2
170 to 175	Cc1cnc2cc(-c3cn(C)c4ccccc34)[nH]c2n1
184 to 186	COc1ccc(/C=C/C(=O)Nc2ccccc2C(N)=O)cc1OC
103 to 104	O=C1C(Cc2ccc(Br)cc2)=C(C(F)F)C(=O)c2ccccc21
156 to 158	O=C(Nc1ccc(Cl)c(Cl)c1)NS(=O)(=O)c1ccc2c(c1)CCC2

Further lines, the compound ahead of its results:

SMILES	melting point [°C]
Nc1ccnc(CCl)n1	125 to 128
CC(=O)OC1CSC(Oc2cccc(-c3ccc(F)cn3)c2)C(OC(C)=O)C1OC(C)=O (stereo not drawn)	113
CCC(=O)Nc1cc(C(C)(C)C)on1	95 to 96
CCOC(=O)C1=C(N(C)C)N=C(C)C(C(=O)OC)C1c1cccc([N+](=O)[O-])c1 (stereo not drawn)	95
CN(C)CCn1c(-c2cccc(C(F)(F)F)c2)cc2c1CCSC2	88.5 to 90
CCCCc1nc2c(N)nc3cccnc3c2n1CCCCNC(=O)OC(C)(C)C	148 to 150
Cc1cc(NC(=O)c2cnn(-c3ccc(C(F)(F)F)cc3)c2C)ccc1N1CCC(N2CCOCC2)CC1	252 to 255
CC(C)C(OC(=O)C(C)(C)C)n1nnc(-c2ccccc2-c2ccc(Oc3c(C4CC4)nc4ccccc4c3C(=O)O)cc2)n1 (stereo not drawn)	165 to 168
O=C(Nc1ccccc1)NC1C(=O)N(CC2C3CC4CC(C3)CC2C4)c2ccccc2N(c2ccccc2)C1=O (stereo not drawn)	192 to 193
Cn1ncnc1COc1nn2c(-c3ccccc3F)nncc2c1Br	215 to 219
O=C(O)CCCCCc1cccc2c(I)ncn12	163 to 165
CCCCCCC(=O)CCCC=O	33 to 34
N#Cc1ccc(CNCCO)cc1	< 60
C#Cc1ccc(C(=O)OCC)cn1	35
COC(=O)CNC(=O)C(CS)NC(=O)CNC(=O)CS (stereo not drawn)	149 to 151
CCc1[nH]c(=S)[nH]c1-c1cc(C(C)(C)C)c(O)c(C(C)(C)C)c1	279 to 281
CCc1cccc(C)c1CNc1cc(C(=O)N(C)C)nc2c1nc(C)n2C	133 to 136
CCN(C(=O)Nc1ccccc1CCc1cc(C(C)(C)C)c(O)c(C(C)(C)C)c1)C1CCN(Cc2ccccc2)CC1	149 to 151
CN1Cc2c(C#N)ccc3scc(c23)S1(=O)=O	238
CCCCCCCCCCCCCCCCCC(=O)NC#N	74 to 75
CCn1c(CCO)nc(N2CCc3ccccc3CC2)c(C#N)c1=O	114 to 115
CCOC(=O)c1cn(Cc2cnsn2)c2nc(Cl)c(F)cc2c1=O	175 to 177

SMILES	melting point [°C]
CC1(C)[C@H](C(=O)OCc2csc(Oc3ccccc3)n2)[C@@H]1C=C1CCSC1=O	78
N#CC1(c2ccccc2)C2CC3CC(C2)CC1C3 (stereo not drawn)	120 to 122
CCc1cc([N+](=O)[O-])c(N)c([N+](=O)[O-])c1C	101 to 102
O=S(=O)(N[C@H](CO)Cc1c[nH]c2ccccc12)c1cccc2ccccc12	85 to 87
C=CCn1c(N)c(N=O)c(=O)n(CC=C)c1=O	170 to 180
Cn1nc(C(F)(F)F)c(CS(=O)(=O)C2=NOC(C)(C)C2)c1OC(F)F	129 to 130
O=C(O)C(O)Cn1nnnc1S (stereo not drawn)	143 to 146
O=C1c2ccccc2C(=O)N1CC(=O)N1c2ccccc2N(Cc2ccccc2F)C(=O)[C@H]2CCC[C@H]21 (relative stereo)	250 to 253
Cc1cn(-c2cc(C(=O)O)cc(C(F)(F)F)c2)cn1	> 300
C[C@H](NC(=O)COCCNC(=O)C12CC3CC(CC(C3)C1)C2)C(=O)N[C@H](CCC(=O)OCc1ccccc1)C(N)=O	57 to 64
COc1ccc(S(=O)(=O)c2c(Br)cc(CC(=O)O)cc2Br)cc1C(C)C	170 to 173
CC(C)(C)S(=O)(=O)CS(=O)(=O)C(C)(C)C	152 to 155
CCCOc1ccc2c(c1)C(c1ccc(OC)cc1OCc1ccccc1)=C(C(=O)OC)[C@H]2c1ccc2c(c1)OCO2	114 to 117
O=C1OCc2c(c3cc(-c4ccc(-c5ccccc5)cc4)ccc3n2Cc2ccccc2)C1=O	254 to 255
COC(=O)N1c2ccccc2Sc2nccnc21	137 to 138
C[C@@H]1OC(=O)N[C@H]1Cc1ccccc1	116
COC(=O)C1C(=O)NC(C)C1c1c(Cl)cccc1Cl (stereo not drawn)	157 to 158
CCOC(=O)N1CCC(n2c(=O)[nH]c3ccc(C)cc32)CC1	222 to 224
COC(=O)C1=C(C(F)F)NC(C)=C(C(=O)OC(C)C)C1c1cccc([N+](=O)[O-])c1 (stereo not drawn)	140 to 141
CCOC(=O)c1c(NC(C)=O)sc2c1C=CC=CC=CC=CC=C2	54 to 74
CCOC(=O)c1c(N(C)C)cc(C(F)(F)F)nc1C(F)(F)F	63.5 to 65
CC(C)(C)OC(=O)N[C@@H](Cc1ccc(Cl)cc1)C(=O)NC1CCC(Nc2cccc3c2C(=O)c2ccccc2C3=O)CC1 (stereo partly drawn)	190

SMILES	melting point [°C]
COC(=O)Cc1c(C(=O)OC)ccn1CCCl	110 to 111
CCCCCC(=O)OCc1nccc(O)n1	78
Cn1c(=O)c(=O)[nH]c2cc(C(F)(F)F)ccc21	255
CNC(=O)[C@@H]1CC[C@H](C(=O)O)N1Cc1ccccc1 (relative stereo)	190 to 192
Cc1ccc(Cn2c(=O)c3c(Cl)cc(Cl)cc3n(Cc3ccccc3)c2=O)cc1	166 to 169
O=Cc1cc(C2CC2)nn1Cc1ccc(C(F)(F)F)cc1Cl	94 to 96
Nc1nc2c(sc(=O)n2C2OC(COC(=O)c3ccccc3)C(OC(=O)c3ccccc3)C2OC(=O)c2ccccc2)c(=O)[nH]1 (stereo not drawn)	248 to 250
Cc1cc(C(=O)O)ccc1N1CCN(C(=O)OC(C)(C)C)CC1	175 to 179
CCOc1ccc(-c2ccc3c(c2)C=C(C(=O)Nc2ccc(CN(C)C4CCC5(CC4)OCCO5)cc2)CCS3(=O)=O)cc1	220 to 223
S=C(NCCCc1ccccc1)Nc1nccs1	126 to 128
Cc1nc(N2CCN(CCc3ccccc3)C2=O)sc1C(=O)NCc1ccccc1	156 to 157
Cc1c(F)cc(O)c2c(=O)c(C(=O)O)cn([C@@H]3C[C@@H]3F)c12	209 to 213
CS(=O)c1nnc(-c2cc(C(C)(C)C)c(O)c(C(C)(C)C)c2)s1 (stereo not drawn)	141
COC(=O)COc1c2c(cc3c1c1c(C(N)=O)cccc1n3Cc1ccccc1)CCCC2	174 to 177
CN(C)C(=O)COC(=O)COc1ccc(C(=O)Nc2ccccc2Sc2ccccc2-c2nnn[nH]2)cc1	205 to 206
O=C1OC(CN2CCC(O)(c3ccccc3)CC2)CN1c1ccccc1 (stereo not drawn)	121 to 122
Cc1csc(C)c1NC(=O)CO	85 to 87
Cc1cccc(NC(=O)NCC(=O)N(CC(=O)OCC2CC2)c2ccccc2)c1	158
Cc1cc(C)nc(NC2CCC(CCN3CCN(c4ccccc4)CC3)CC2)n1 (stereo not drawn)	127 to 129
COc1ccc(C(=O)N2c3ccccc3C(n3c4ccccc4c4ccccc43)CC2CCCCCOc2ccc(F)cc2)cc1OC (stereo not drawn)	157 to 159
CN1CCC(Oc2ccc(Br)cc2C(N)=O)C1 (stereo not drawn)	160 to 162
CC1COc2c(F)c(F)cc3c(=O)c(C(=O)O)cn1c23 (stereo not drawn)	> 280
